This note sets out measurements from PMC8123555, “Precision targeting of the plasminogen activator inhibitor‐1 mechanism increases efficacy of fibrinolytic therapy in empyema” (Physiological Reports, 2021).

Some results are limits rather than exact numbers.

Format in all cases: in vivo, rabbit
Data set [1] relates to Streptococcus pneumoniae induced empyema. Briefly: Fibrinolytic therapy of S. pneumoniae induced empyema in rabbits (GLIS, pleural thickening, WBC differential). As for the experimental part:
All animal procedures were approved by the Institutional Animal Care and Use Committee at The University of Texas Health Science Center at Tyler (IACUC protocols 499,616,617). Studies used female, pathogen‐free New Zealand white rabbits (3.0–3.6 kg; average age 18 weeks) from Charles River Laboratories (Wilmington, MA). These studies required a total of 107 rabbits, 43 for the model of TCN‐induced pleural injury and 64 for the model of empyema. […] Briefly, a 3 ml mixture of TCN in ascorbic acid (20 mg/ml TCN (T3258, Sigma‐Aldrich), 2.5 mg/ml ascorbic acid (A7506, Sigma‐Aldrich) and lidocaine (1 mg/ml, UTHCT Compounding Pharmacy), was delivered by intrapleural injection. A model of acute empyema in rabbits was induced as described previously (Komissarov et al., 2016). Briefly, 1–5 × 10^8 cfu of S. pneumoniae (D39 strain, National Collection of Type Cultures, Salisbury UK) in 3 ml of 0.5% brain‐heart infusion agar (BD 238400, BD Diagnostic Systems) was delivered by intrapleural injection. Clavomox (10 mg/kg, subcutaneous, daily for 1–3 days as clinically indicated by Attending Veterinarian) (10000485, Zoetis) was started at 28–30 h post‐infection. Accumulation of pleural fluid and fibrin deposition was monitored using ultrasonography; detailed in the ultrasonography subsection. After 48 or 72 h for TCN‐induced pleural injury and empyema, respectively, intrapleural therapeutics were administered depending on treatment group via an 18‐gauge catheter, which was flushed with 0.5 ml PBS. In all experiments, samples of pleural fluids (0.5 ml) from each rabbit were collected prior to and at 10, 20, and 40 min after PAI‐1‐TFT and processed for later analysis (Florova et al., 2015; Karandashova et al., 2013; Komissarov et al., 2013, 2016). Anesthesia, postoperative pain medication, and animal care were provided as reported previously (Florova et al., 2015; Karandashova et al., 2013; Komissarov et al., 2013, 2016). with details provided in the supplement. Animals were monitored carefully for signs of distress, pain, and worsening clinical status. Euthanasia was accomplished using intravenous injection of 1 ml of commercial euthanasia solution (sodium pentobarbital 390 mg/ml and phenytoin 50 mg/ml) followed by exsanguination.
Development of pleural injury was monitored via ultrasonography. Briefly, B‐mode ultrasonography of the chest was performed (Komissarov et al., 2013, 2015) using a Logiq e system (GE Healthcare, Milwaukee, WI) using R5.2.x software and a multifrequency transducer model 12L‐RS at a working frequency of 10 MHz, as previously described (Komissarov et al., 2016).
For each animal, gross lung injury scores (GLIS) were calculated as previously described (Florova et al., 2015; Karandashova et al., 2013; Komissarov et al., 2013). PAI‐1‐TFT was considered successful when GLIS ≤10. Multiple fibrin webs or sheets connecting the visceral and parietal pleura or “too numerous to count” (TNTC) strands and a fibrinous lung coating correlated with a GLIS = 50. Pleural thickening was measured using morphometry, as previously described (Komissarov et al., 2016).

Data set [2] has as its system plasminogen activating activity in pleural fluid. Briefly: Intrapleural inactivation of tPA and uPA plasminogen activating activity, TCN-induced injury. The conditions noted are these: during PAI-1-TFT of chemically induced pleural injury; slower phase, 10-40 min. As for the experimental part:
Amidolytic activity was measured in clear 96‐well flat bottom plates from Costar (Corning Inc.) using a Synergy™ HT Hybrid Reader (BioTek, Winooski, VT). Amidolytic activity was calculated from the initial slopes of the time traces of the change in absorbance at 405 nm upon hydrolysis of chromogenic as described previously (Komissarov et al., 2009, 2013). The plasminogen activating activity was determined from the relative rate of activation of exogenous Glu‐plasminogen added to the reaction mixture containing 0.1–0.5 µl of pleural fluid in 0.1 ml of Hepes buffer solution with BSA (1 mg/ml) as previously described (Florova et al., 2013, 2018). The reaction mixtures (0.1 ml in black 96‐well flat bottom plates from Costar) contained 100 nM of human Glu‐plasminogen with 0.2 mM of SN‐5 plasmin fluorogenic substrate (HTI, Essex Junction, VT). Plasmin activity was measured by recording changes in the fluorescence emission at 470 nm (F470) with time (excitation at 352 nm) using a Synergy™ HT Hybrid Reader (BioTek, Winooski, VT). The level of plasminogen activating activity [PA] was calculated from slopes of linear dependences of F470 from square of time (t^2) (F470 = A [PA] t^2 + B; where A and B are constants), and results of measurements of standards with known concentrations of tcuPA and tctPA as previously described (Komissarov et al., 2009, 2013). […]

The subject of data set [3] is chemically induced (TCN) pleural injury. The data set can be described thus: Fibrinolytic therapy of TCN-induced pleural injury in rabbits (GLIS, pleural thickening). Conditions: outcome at 24 h. From the text: All animal procedures were approved by the Institutional Animal Care and Use Committee at The University of Texas Health Science Center at Tyler (IACUC protocols 499,616,617). Studies used female, pathogen‐free New Zealand white rabbits (3.0–3.6 kg; average age 18 weeks) from Charles River Laboratories (Wilmington, MA). These studies required a total of 107 rabbits, 43 for the model of TCN‐induced pleural injury and 64 for the model of empyema. […] Accumulation of pleural fluid and fibrin deposition was monitored using ultrasonography; detailed in the ultrasonography subsection. […] Animals were monitored carefully for signs of distress, pain, and worsening clinical status. […]
Development of pleural injury was monitored via ultrasonography. […]
For each animal, gross lung injury scores (GLIS) were calculated as previously described (Florova et al., 2015; Karandashova et al., 2013; Komissarov et al., 2013). […] Pleural thickening was measured using morphometry, as previously described (Komissarov et al., 2016).

Setting [4] is: plasminogen activator 0.5 mg/kg alone, empyema.

On to Prourokinase [scuPA], for which the “Outcome of fibrinolytic therapy (GLIS)” value in data set [1] (setting [4]) is on record as “ineffective”. In data set [2], the “kobs of intrapleural inactivation of plasminogen activating activity” value fell in the range of 0.02 to 0.05 min⁻¹. Further, the “Gross lung injury score (GLIS)” value in data set [3] (scuPA 62.5 µg/kg alone (1/8 of MED), n = 6) was over 10.

Regarding Alteplase [sctPA, reference compound], the “Outcome of fibrinolytic therapy (GLIS)” value in data set [1] (setting [4]) is on record as “ineffective”; in data set [1] (sctPA 0.25 mg/kg alone, acute empyema) it was “ineffective”. Further, the “GLIS of representative animal” value in data set [1] (sctPA 0.25 mg/kg alone, photograph 24 h after treatment) was found to be 50. For the same substance, the “Minimal effective dose (MED) of sctPA with DSP” value in data set [1] (with 8.0 mg/kg DSP, acute empyema) came to 0.25 mg/kg. Moreover, the “kobs of intrapleural inactivation of plasminogen activating activity” value in data set [2] was 0.02 to 0.05 min⁻¹. For the same substance, the “Gross lung injury score (GLIS)” value in data set [3] (sctPA 72.5 µg/kg alone (1/2 of MED), n = 5) is over 10.
